In PubChem BioAssay (NCI):
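Compound exposure: 48 hours, 5 concentrations, 96-well plates. TGI denotes the concentration required for complete inhibition of growth.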

Assays:
Assay in all cases: NCI-60 cell line screen, 48 h
[1] = system: SF-268 CNS
[2] = system: EKVX NSCLC
[3] = system: SK-MEL-5 melanoma
[4] = system: SNB-75 CNS
[5] = system: LOX IMVI melanoma
[6] = system: M14 melanoma
[7] = system: HCT-15 colon
[8] = system: SW-620 colon
[9] = system: MCF7 breast
[10] = system: T-47D breast
[11] = system: 786-0 renal
[12] = system: HCT-116 colon
[13] = system: UO-31 renal
[14] = system: SF-539 CNS
[15] = system: HS 578T breast
[16] = system: HOP-62 NSCLC
[17] = system: MDA-MB-435
[18] = system: OVCAR-5 ovarian
[19] = system: RPMI-8226 leukemia
[20] = system: TK-10 renal
[21] = system: A549 NSCLC
[22] = system: MDA-N
[23] = system: OVCAR-3 ovarian
[24] = system: UACC-62 melanoma
[25] = system: K-562 leukemia
[26] = system: SK-MEL-28 melanoma
[27] = system: UACC-257 melanoma
[28] = system: DU-145 prostate
[29] = system: HCC-2998 colon
[30] = system: NCI-H23 lung
[31] = system: NCI-H522 lung
[32] = system: OVCAR-8 ovarian
[33] = system: SNB-19 CNS
[34] = system: NCI/ADR-RES ovarian
[35] = system: KM12 colon
[36] = system: PC-3 prostate
[37] = system: COLO 205 colon
[38] = system: IGROV1 ovarian
[39] = system: SN12C renal
[40] = system: HT29 colon
[41] = system: SR leukemia
[42] = system: SF-295 CNS
[43] = system: NCI-H460 lung
[44] = system: MOLT-4 leukemia
[45] = system: ACHN renal
[46] = system: SK-MEL-2 melanoma
[47] = system: CCRF-CEM leukemia
[48] = system: HOP-92 NSCLC
[49] = system: U251 CNS
[50] = system: SK-OV-3 ovarian
[51] = system: CAKI-1 renal
[52] = system: BT-549 breast
[53] = system: OVCAR-4 ovarian
[54] = system: MDA-MB-231 breast
[55] = system: RXF 393 renal
[56] = system: HL-60(TB) leukemia
[57] = system: MALME-3M melanoma
[58] = system: NCI-H226 lung
[59] = system: A498 renal

COc1cc(OC)c(C2c3cc4c(cc3OC(N3CCOCC3)C2C)OCO4)c(OC)c1 (stereo not drawn)
TGI [1]: > 100 µM | TGI [2]: > 100 µM | TGI [3]: > 100 µM | TGI [4]: 93.2 µM | TGI [5]: > 100 µM | TGI [6]: > 100 µM | TGI [7]: > 100 µM | TGI [8]: > 100 µM | TGI [9]: > 100 µM | TGI [10]: > 100 µM | TGI [11]: > 100 µM | TGI [12]: > 100 µM | TGI [13]: > 100 µM | TGI [14]: > 100 µM | TGI [15]: 20.5 µM | TGI [16]: > 100 µM | TGI [17]: > 100 µM | TGI [18]: > 100 µM | TGI [19]: > 100 µM | TGI [20]: > 100 µM | TGI [21]: > 100 µM | TGI [22]: > 100 µM | TGI [23]: > 100 µM | TGI [24]: > 100 µM | TGI [25]: > 100 µM | TGI [26]: > 100 µM | TGI [27]: > 100 µM | TGI [28]: > 100 µM | TGI [29]: > 100 µM | TGI [30]: > 100 µM | TGI [31]: > 100 µM | TGI [32]: > 100 µM | TGI [33]: > 100 µM | TGI [34]: > 100 µM | TGI [35]: > 100 µM | TGI [36]: > 100 µM | TGI [37]: > 100 µM | TGI [38]: > 100 µM | TGI [39]: > 100 µM | TGI [40]: > 100 µM | TGI [41]: > 100 µM | TGI [42]: > 100 µM | TGI [43]: > 100 µM | TGI [44]: > 100 µM | TGI [45]: 82.4 µM | TGI [46]: > 100 µM | TGI [47]: > 100 µM

COc1ccc(/C(C)=N/NC(=S)N(C)C)c(O)c1
TGI [1]: > 100 µM | TGI [2]: > 100 µM | TGI [3]: > 100 µM | TGI [4]: > 100 µM | TGI [5]: 12.4 µM | TGI [48]: 98.8 µM | TGI [6]: > 100 µM | TGI [8]: > 100 µM | TGI [10]: > 100 µM | TGI [49]: > 100 µM | TGI [12]: > 100 µM | TGI [13]: 36 µM | TGI [15]: > 100 µM | TGI [16]: > 100 µM | TGI [17]: > 100 µM | TGI [18]: > 100 µM | TGI [19]: > 100 µM | TGI [50]: > 100 µM | TGI [51]: 96.6 µM | TGI [21]: > 100 µM | TGI [22]: > 100 µM | TGI [23]: > 100 µM | TGI [24]: 20.1 µM | TGI [26]: > 100 µM | TGI [27]: 77.7 µM | TGI [28]: > 100 µM | TGI [29]: > 100 µM | TGI [52]: 66.6 µM | TGI [30]: 72.9 µM | TGI [31]: > 100 µM | TGI [33]: > 100 µM | TGI [35]: > 100 µM | TGI [36]: > 100 µM | TGI [37]: 12.4 µM | TGI [38]: 23.2 µM | TGI [39]: > 100 µM | TGI [40]: > 100 µM | TGI [53]: 9.48 µM | TGI [41]: > 100 µM | TGI [42]: > 100 µM | TGI [43]: > 100 µM | TGI [54]: > 100 µM | TGI [44]: > 100 µM | TGI [45]: > 100 µM | TGI [46]: > 100 µM | TGI [47]: 87.9 µM

Cc1ccc(-n2cc(-c3ccc(Cl)cc3)c3c2N=CN2NC(c4ccco4)=NC32)cc1 (stereo not drawn)
TGI [1]: 83.6 µM | TGI [2]: > 100 µM | TGI [3]: > 100 µM | TGI [4]: 18.1 µM | TGI [5]: > 100 µM | TGI [48]: 9.88 µM | TGI [6]: > 100 µM | TGI [55]: 30.7 µM | TGI [7]: > 100 µM | TGI [8]: > 100 µM | TGI [9]: > 100 µM | TGI [49]: 20.8 µM | TGI [11]: 17.4 µM | TGI [12]: 31.8 µM | TGI [13]: 47.5 µM | TGI [14]: 51.3 µM | TGI [15]: 7.16 µM | TGI [16]: 24 µM | TGI [17]: > 100 µM | TGI [18]: > 100 µM | TGI [56]: > 100 µM | TGI [50]: 16 µM | TGI [51]: 27.3 µM | TGI [20]: 28.7 µM | TGI [21]: > 100 µM | TGI [22]: > 100 µM | TGI [23]: 73.8 µM | TGI [24]: 31.5 µM | TGI [25]: > 100 µM | TGI [26]: > 100 µM | TGI [27]: > 100 µM | TGI [28]: > 100 µM | TGI [29]: > 100 µM | TGI [52]: 99.2 µM | TGI [30]: 72.4 µM | TGI [31]: 90 µM | TGI [32]: 27.5 µM | TGI [57]: > 100 µM | TGI [33]: 42.6 µM | TGI [34]: 86.6 µM | TGI [36]: > 100 µM | TGI [37]: > 100 µM | TGI [38]: 72.3 µM | TGI [39]: > 100 µM | TGI [58]: 68.6 µM | TGI [40]: > 100 µM | TGI [53]: 4.03 µM | TGI [41]: 11.6 µM | TGI [42]: 27.8 µM | TGI [43]: > 100 µM | TGI [54]: 26 µM | TGI [45]: 24.5 µM | TGI [59]: 29.2 µM | TGI [46]: 27.5 µM | TGI [47]: > 100 µM

Cc1cc2c(cc1Cl)SC(NNc1cnc3ccccc3n1)=NS2(=O)=O
TGI [1]: > 100 µM | TGI [2]: > 100 µM | TGI [3]: > 100 µM | TGI [4]: > 100 µM | TGI [5]: > 100 µM | TGI [48]: 77.2 µM | TGI [6]: > 100 µM | TGI [55]: > 100 µM | TGI [7]: > 100 µM | TGI [8]: > 100 µM | TGI [10]: > 100 µM | TGI [49]: > 100 µM | TGI [11]: > 100 µM | TGI [12]: > 100 µM | TGI [13]: > 100 µM | TGI [14]: 87 µM | TGI [15]: > 100 µM | TGI [16]: > 100 µM | TGI [17]: > 100 µM | TGI [18]: > 100 µM | TGI [56]: > 100 µM | TGI [50]: > 100 µM | TGI [51]: > 100 µM | TGI [20]: > 100 µM | TGI [21]: > 100 µM | TGI [22]: > 100 µM | TGI [23]: > 100 µM | TGI [24]: > 100 µM | TGI [25]: > 100 µM | TGI [26]: > 100 µM | TGI [27]: > 100 µM | TGI [28]: > 100 µM | TGI [29]: > 100 µM | TGI [52]: > 100 µM | TGI [30]: > 100 µM | TGI [31]: > 100 µM | TGI [32]: > 100 µM | TGI [57]: > 100 µM | TGI [33]: > 100 µM | TGI [34]: > 100 µM | TGI [35]: > 100 µM | TGI [36]: > 100 µM | TGI [37]: > 100 µM | TGI [38]: > 100 µM | TGI [39]: > 100 µM | TGI [58]: > 100 µM | TGI [40]: > 100 µM | TGI [53]: > 100 µM | TGI [42]: > 100 µM | TGI [43]: > 100 µM | TGI [54]: > 100 µM | TGI [44]: 63.5 µM | TGI [45]: > 100 µM | TGI [59]: 65.7 µM | TGI [47]: > 100 µM
